The text below walks through data of patent US20040023953A1, “Tricylic mercaptomethyl-substituted 2,3-dihydro-quinazolin-5-ones and 2,3-dihydro-benzo-[1,2,4]-thiadiazin-5,5-dioxides as matrix metalloproteinase (MMP) inhibitors” (priority 2000, published 2004).

What all share (type): biochemical
The target of one assay is T1, MMP-2 (gelatinase) (Homo sapiens, UniProt P08253).
T1 construct: endogenous in cells; host or cells: human dermal fibroblasts (secreted into culture medium)
T1 sequence (P08253 110-660): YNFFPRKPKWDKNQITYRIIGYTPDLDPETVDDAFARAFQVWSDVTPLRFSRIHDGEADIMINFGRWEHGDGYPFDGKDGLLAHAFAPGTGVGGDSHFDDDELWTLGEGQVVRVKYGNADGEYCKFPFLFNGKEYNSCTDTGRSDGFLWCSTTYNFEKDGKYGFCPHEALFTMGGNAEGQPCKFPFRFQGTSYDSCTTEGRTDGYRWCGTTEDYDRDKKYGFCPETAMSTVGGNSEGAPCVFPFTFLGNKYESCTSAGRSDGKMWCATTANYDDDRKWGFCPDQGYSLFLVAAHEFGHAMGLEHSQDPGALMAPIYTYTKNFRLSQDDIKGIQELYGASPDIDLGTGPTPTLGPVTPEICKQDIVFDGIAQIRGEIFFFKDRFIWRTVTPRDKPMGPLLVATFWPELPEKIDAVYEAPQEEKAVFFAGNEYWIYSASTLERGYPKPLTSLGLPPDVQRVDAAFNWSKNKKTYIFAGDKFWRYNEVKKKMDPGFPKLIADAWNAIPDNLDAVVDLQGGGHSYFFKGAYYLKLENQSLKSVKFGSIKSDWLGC
In words: Quantitative fluorescence assay, inhibition of MMP-2. The following applies: 10 μM inhibitor; no explicit Ki value since the dixon plot is non-linear. How it is done:
Inhibition of the Matrix Metalloproteinase-2 (MMP-2)
MMP-2 (gelatinase) is supplied by cultivated dermal fibroblasts to the culture medium in considerable amounts and is thus easily accessible.
For this purpose, human dermal fibroblasts are obtained according to established standard methods and cultivated and the cell-free culture supernatant is treated with trypsin. Trypsin is then inactivated with a specific inhibitor (TLCK) and active MMP-2 is partially purified by affinity chromatography on gelatin sepharose and subsequent gel filtration on sepharose. MMP-2 was identified and characterized by the availability of a commercial immunoassay.
(§1) Quantitative Fluorescence Assay for Matrix Metalloproteinases
(§2) The fluorescent group Mca is separated from the internal quencher Dpa by enzymatic cleavage of the synthetic substrate Mca-Pro-Leu-Gly-Leu-Dpa-Ala-Arg-NH2 using the respective collagenase. This is accompanied by a great increase in fluorescence in the measuring batch, which can be quantified using a fluorimeter (λex 328 nm, λem 393 nm) and proceeds linearly within the first few minutes. A certain specificity of the test to matrix metalloproteinases follows from the amino acid sequence-Pro-Leu-Gly-Leu-in the substrate, on the one hand, and from the select incubation conditions, on the other hand. Matrix metalloproteinases cleave the substrate at the Gly-Leu bond. The proteolytic residual activity of pre-incubated batches of enzyme and inhibitor is measured, the substrate and enzyme concentrations having been kept constant and the inhibitor concentration having been varied. Three series of measurements using a different substrate concentration were made for each tested inhibitor. The enzyme activity is calculated in fluorescence units per min. on the basis of the time-sensitive fluorescence increase. The Ki values were determined graphically according to the DIXON method (1953) by applying the reciprocal reaction rate 1/v (y axis) against inhibitor concentration (x axis).
(§3) 2 μl inhibitor dissolved in DMSO, or DMSO alone (non-inhibitory approach) 4 μl enzyme (MMP-2 or MMP-9 or catalytic domain of MMP-8)
(§4) 5 min. preliminary incubation of the enzyme-inhibitor mixture at room temperature while stirring start of the reaction with 10 μl substrate dissolved in DMSO recording of the time-sensitive fluorescence increase over a period of 2 min.
(§5) Inhibition of human MMPs by the inhibitors of general formulae Ia and Ib according to the invention

Assay [1] concerns the target T2, recombinant catalytic domain of MMP-8 (Homo sapiens, UniProt P22894).
T2 construct: instead of the whole enzyme only its enzymatically active catalytic domain was cloned into E. coli; made in house; host or cells: E. coli
In words: Quantitative fluorescence assay, inhibition of catalytic domain of MMP-8. The following applies: for MMP-8 inhibition with 10 μM: 10 μM inhibitor, no explicit Ki value since the dixon plot is non-linear.
Description: Cloning and Expression of the Catalytic MMP-8 Domain
The catalytic MMP-8 domain was used as another test enzyme because it has a high degree of stability and is also available as an active enzyme and therefore needs not be activated, which is in consideration as one of the most frequent causes of error since the mercury compounds used for the activation often interfere with the test system and/or the enzyme and in this way can falsify the measuring results. The cloning strategy was directed towards the circumstance that instead of the whole enzyme only its enzymatically active catalytic domain was cloned into E. coli.
The cloning and expression of the recombinant catalytic MMP-8 domain was carried out in accordance with the statements made by SCHNIERER et al. (Schnierer S., Kleine T., Gote T., Hillemann A., Knäuper V., Tschesche H.: The recombinant catalytic domain of human neutrophil collagenase lacks type I collagen substrate specificity. Biochem Biophys Res Comm (1993), vol. 191, No. 2, 319-326).
as §1, §2, §3, §4, §5

Another assay concerns the target T3, MMP-9 (Homo sapiens, UniProt P14780).
T3 construct: from tissue; host or cells: human buffy coat (blood leukocytes)
In words: Quantitative fluorescence assay, inhibition of MMP-9. The following applies: for MMP-9 inhibition with 10 μM: 10 μM inhibitor, no explicit Ki value since the dixon plot is non-linear; for Ki: DIXON method. How it is done:
Preparation of the Human Collagenase MMP-9
Native MMP-9 was obtained reproducibly and with good yield and purity from human Buffy Coat. For this purpose, Buffy Coat is brought to a final concentration of 0,4% using 10% (v/v) triton X-100, shaken on ice for 30 min. and then 1 vol. double binding buffer (40 mM Tris-HCl, pH 7.5, 10 mM CaCl2, 1 M NaCl, 0.2% (v/v) triton X-100) is added and shaking on ice is continued for another 30 min.
The solution is centrifuged off at 16,000 rpm on an SS-34 rotor at 4° C. for 15 min. and filtered on glass wool. The filtrate is batched with gelatin agarose equilibrated with binding buffer and shaken on ice for 1 hour.
The charged gelatin agarose is transferred to a column and rinsed in protein-free manner using at least 10 vol. binding buffer. The bound MMP-9 is eluted with 2 gel volumes binding buffer plus 5% (v/v) DMSO.
For an exchange of buffers and simultaneous separation of minor MMP-2 contaminations the eluate can be separated on sephadex G-75 by means of gel filtration. Buffer I (20 mM Tris-HCl, pH 7.5, 5 mM CaCl2, 100mM NaCl, 0.1% (v/v) triton X-100) is used for this purpose.
The resulting eluate contains MMP-9 in the three known configurations: monomer, homodimer, heterodimer. The purity of the enzyme is about 90%, the rest of the foreign proteins being fibronectin and extremely small amounts of TIMPs.
The latent enzyme is activated by incubation at 37° C. using 1/100 vol. trypsin (10 mg/ml), for 30-60 min. Trypsin is inhibited by adding 1 mM PMSF or with a specific inhibitor (TLCK).
as §1
as §2, with “A certain specificity of the test to matrix metalloproteinases follows from the amino acid sequence-Pro-Leu-Gly-Leu-in the substrate, on the one hand, and from the select incubation conditions, on the other hand. Matrix metalloproteinases cleave the substrate at the Gly-Leu bond.” left out, “Three series of measurements using a different substrate concentration were made for each tested inhibitor.” left out, “axis). […]” for “axis).”
5 min. preliminary incubation of the enzyme-inhibitor mixture at room temperature while stirring start of the reaction with 10 μl substrate dissolved in DMSO recording of the time-sensitive fluorescence increase over a period of 2 min. […]

The target of assay [2] is T4, MT1-MMP (recombinant catalytic domain of MMP-14) (Homo sapiens, UniProt P50281).
T4 construct: recombinant catalytic domain of MMP-14
In words: Quantitative fluorescence assay, inhibition of MT1-MMP. The following applies: for Ki: DIXON method.
Description: In particular when used as medicaments, specific inhibitors would only influence the desired target enzymes but not disturb the balanced interplay of the other MMPs, thus helping to avoid possible undesired side-effects.
as §1, §2, §5

The structures appear in SMILES notation.

T3 sequence (P14780 107-707 limits assumed): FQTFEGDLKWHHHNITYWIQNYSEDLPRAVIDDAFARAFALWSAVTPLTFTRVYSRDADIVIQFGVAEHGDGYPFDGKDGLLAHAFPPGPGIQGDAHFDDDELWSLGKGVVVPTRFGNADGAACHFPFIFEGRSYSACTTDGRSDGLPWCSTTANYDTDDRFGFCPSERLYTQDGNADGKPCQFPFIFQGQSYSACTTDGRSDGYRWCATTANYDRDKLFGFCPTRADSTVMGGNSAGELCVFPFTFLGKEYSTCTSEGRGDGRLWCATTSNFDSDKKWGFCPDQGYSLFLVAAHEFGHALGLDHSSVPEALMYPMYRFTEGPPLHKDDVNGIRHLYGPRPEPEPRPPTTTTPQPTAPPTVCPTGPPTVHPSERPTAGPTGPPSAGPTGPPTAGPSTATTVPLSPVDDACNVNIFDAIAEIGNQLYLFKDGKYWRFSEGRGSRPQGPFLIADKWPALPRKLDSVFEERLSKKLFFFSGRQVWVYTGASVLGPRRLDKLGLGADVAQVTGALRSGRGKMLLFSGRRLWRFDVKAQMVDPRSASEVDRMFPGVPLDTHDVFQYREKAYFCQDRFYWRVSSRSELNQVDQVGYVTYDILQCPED
T2 sequence (P22894 100-262 limits assumed): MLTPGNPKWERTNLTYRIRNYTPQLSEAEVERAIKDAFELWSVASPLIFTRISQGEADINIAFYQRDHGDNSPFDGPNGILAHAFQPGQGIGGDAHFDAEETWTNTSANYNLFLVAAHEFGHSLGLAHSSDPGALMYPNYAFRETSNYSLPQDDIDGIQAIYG

Regarding `O=c1c2ccc(Cl)cc2nc2n1C[C@H](CS)S2` (racemic) [Example 5, (R,S)-8-chloro-2-mercaptomethyl-2,3-dihydro-5H-thiazolo(2,3-b]quinazoline-5-one], the “MMP-2 inhibition with 10 μM” value on MMP-2 (gelatinase) worked out at 80%. For the same compound, the “MMP-8 inhibition with 10 μM” value in assay [1] was determined as 90%. Besides, on MMP-9, the “MMP-9 inhibition with 10 μM” value is reported as 85%. Besides, the “MT1-MMP inhibition with 10 μM” value in assay [2] (10 μM inhibitor, no explicit Ki value since the dixon plot is non-linear) is given as 85%.
As to `C[C@]1(CS)Cn2c(nc3ccccc3c2=O)S1` (racemic) [Example 2, (R,S)-2-mercaptomethyl-2-methyl-2,3-dihydro-5H-thiazolo[2,3-b]quinazoline-5-one], at MMP-2 (gelatinase), the “MMP-2 inhibition with 10 μM” value is on record as 50%. In addition, the “MMP-8 inhibition with 10 μM” value in assay [1] is reported as 85%. Further, the inhibition constant Ki (usually the dissociation constant of the complex between target and ligand, obtained from inhibition or displacement) at MMP-9 is 1 µM; in assay [2], 4 µM.
Regarding `O=c1c2ccccc2nc2n1C[C@H](CS)S2` (racemic) [Example 1, (R,S)-2-Mercaptomethyl-2,3-dihydro-5H-thiazolo(2,3-b]-quinazoline-5-one], on MMP-2 (gelatinase), the “MMP-2 inhibition with 10 μM” value is given as 70%. Moreover, in assay [1], the “MMP-8 inhibition with 10 μM” value was 80%. Besides, in assay [2] (2.5 μM inhibitor, no explicit Ki value since the dixon plot is non-linear), the “MT1-MMP inhibition with 2.5 μM” value is recorded as 50% inhi-.
As for `O=c1c2ccccc2nc2n1[C@H](CS)CS2` (racemic) [Example 4, (R,S)-3-mercaptomethyl-2,3-dihydro-5H-thiazolo[2,3-b]quinazoline-5-one], the “MMP-2 inhibition with 10 μM” value on MMP-2 (gelatinase) came out at 50%. Further, the “MMP-8 inhibition with 10 μM” value in assay [1] is listed as 25%. Besides, the “MMP-9 inhibition with 10 μM” value at MMP-9 is recorded as 75%. In addition, the inhibition constant (Ki) in assay [2] worked out at 55 µM.
On to `O=C(O)c1ccc2c(=O)n3c(nc2c1)S[C@@H](CS)C3` (racemic) [Example 3, (R,S)-8-carboxy-2-mercaptomethyl-2,3-dihydro-5H-thiazolo [2,3-b]quinazoline-5-one], for which, on MMP-2 (gelatinase), the “MMP-2 inhibition with 10 μM” value was determined as 25%. Moreover, the Ki in assay [1] (DIXON method) worked out at 24 µM; at MMP-9, 15 µM; in assay [2] it was 21 µM.
